Data: ChEMBL document CHEMBL5724796, “Tm Shift (DSF) assay results for EUbOPEN Chemogenomics Library” (2024)
Values joined by “and” are separate entries in the source; they are usually repeats but may differ in a detail not shown here. Identical values can stand only once. Residues, ends and D or L forms follow the SMILES beside them. *: point of attachment. CH2Cl = ClC*

Legend:
Peregrin (Homo sapiens) = molecular target: T1, Peregrin (Homo sapiens) (UniProt P55201); details: Compound concentration 20.0 uM
T1 sequence (whole entry): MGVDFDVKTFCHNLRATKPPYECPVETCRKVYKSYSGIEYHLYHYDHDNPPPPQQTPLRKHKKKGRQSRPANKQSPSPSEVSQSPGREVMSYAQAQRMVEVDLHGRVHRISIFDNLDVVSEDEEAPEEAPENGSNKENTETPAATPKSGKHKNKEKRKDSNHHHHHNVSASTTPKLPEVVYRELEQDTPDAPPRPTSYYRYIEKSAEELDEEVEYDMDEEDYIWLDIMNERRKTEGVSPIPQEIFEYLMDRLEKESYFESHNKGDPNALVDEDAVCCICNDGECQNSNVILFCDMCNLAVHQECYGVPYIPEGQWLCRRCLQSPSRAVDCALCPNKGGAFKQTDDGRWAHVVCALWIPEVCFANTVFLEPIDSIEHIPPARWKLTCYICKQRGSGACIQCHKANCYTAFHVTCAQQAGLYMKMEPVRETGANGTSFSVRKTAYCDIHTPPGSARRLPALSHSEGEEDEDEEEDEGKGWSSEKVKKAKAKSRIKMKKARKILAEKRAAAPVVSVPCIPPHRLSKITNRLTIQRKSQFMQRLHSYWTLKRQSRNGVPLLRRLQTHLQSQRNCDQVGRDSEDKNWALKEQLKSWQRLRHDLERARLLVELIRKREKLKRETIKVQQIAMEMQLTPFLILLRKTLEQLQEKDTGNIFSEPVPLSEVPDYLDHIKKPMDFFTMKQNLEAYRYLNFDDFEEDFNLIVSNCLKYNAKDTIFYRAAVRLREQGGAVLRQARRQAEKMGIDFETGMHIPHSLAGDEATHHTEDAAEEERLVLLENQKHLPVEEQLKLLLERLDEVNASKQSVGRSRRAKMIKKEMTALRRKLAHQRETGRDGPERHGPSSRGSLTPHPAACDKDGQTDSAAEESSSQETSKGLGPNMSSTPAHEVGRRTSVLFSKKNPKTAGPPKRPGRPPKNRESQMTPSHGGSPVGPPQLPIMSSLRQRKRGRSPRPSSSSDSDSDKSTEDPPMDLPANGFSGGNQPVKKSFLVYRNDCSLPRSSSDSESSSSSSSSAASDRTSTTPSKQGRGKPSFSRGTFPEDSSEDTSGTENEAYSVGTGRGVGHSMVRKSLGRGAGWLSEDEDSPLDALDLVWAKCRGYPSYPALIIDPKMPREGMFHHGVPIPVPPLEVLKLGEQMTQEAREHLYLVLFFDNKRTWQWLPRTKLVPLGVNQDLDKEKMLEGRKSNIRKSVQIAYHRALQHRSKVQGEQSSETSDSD

[1] = molecular target: Fibroblast growth factor receptor 2 (Homo sapiens) (UniProt P21802); details: Compound concentration 20.0 uM
Fibroblast growth factor receptor 2 (Homo sapiens), sequence (P21802 22-821 limits assumed): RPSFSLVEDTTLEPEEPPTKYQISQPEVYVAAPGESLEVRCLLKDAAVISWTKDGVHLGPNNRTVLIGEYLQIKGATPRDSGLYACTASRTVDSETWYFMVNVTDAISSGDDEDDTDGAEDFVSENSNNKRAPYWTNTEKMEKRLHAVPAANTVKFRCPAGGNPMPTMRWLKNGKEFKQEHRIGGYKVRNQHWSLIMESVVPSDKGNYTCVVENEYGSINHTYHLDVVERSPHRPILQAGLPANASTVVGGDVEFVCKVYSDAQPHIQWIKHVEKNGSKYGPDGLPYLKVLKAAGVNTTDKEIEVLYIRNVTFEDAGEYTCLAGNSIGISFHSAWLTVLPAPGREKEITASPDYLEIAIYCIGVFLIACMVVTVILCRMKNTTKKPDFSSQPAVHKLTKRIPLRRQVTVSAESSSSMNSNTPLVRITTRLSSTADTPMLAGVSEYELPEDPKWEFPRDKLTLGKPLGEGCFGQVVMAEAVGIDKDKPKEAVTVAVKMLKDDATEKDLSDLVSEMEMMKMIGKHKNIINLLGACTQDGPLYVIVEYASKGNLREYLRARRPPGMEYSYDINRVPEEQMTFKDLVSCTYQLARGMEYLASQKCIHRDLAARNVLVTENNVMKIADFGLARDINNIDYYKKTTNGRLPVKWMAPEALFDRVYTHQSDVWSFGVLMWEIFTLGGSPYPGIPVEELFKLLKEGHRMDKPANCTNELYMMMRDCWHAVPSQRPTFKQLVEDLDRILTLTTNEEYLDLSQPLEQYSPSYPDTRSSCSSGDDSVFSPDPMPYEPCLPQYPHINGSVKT
Description: Thermal Shift Assay. Domain: start/stop: T457-E768

| Structure (SMILES) | ΔTm (Peregrin (Homo sapiens)) | ΔTm [1] | ΔTm (Peregrin (Homo sapiens); Protein concentration 2.0 uM) |
| --- | --- | --- | --- |
| CC(C)(OCc1cc(-c2cccc(OC3CC3)c2)n(-c2ccccc2Cl)n1)C(=O)O | 0.83 °C | -0.52 °C | – |
| COCCOc1cc(CC2CCN(CCc3ccc4c(c3)C(=O)CCO4)CC2)ccc1Br | 1.8 °C | -0.65 °C | – |
| CC1(C)c2cccc(C(=O)NO)c2CN1c1cnc(C(F)(F)F)cn1 | 0.66 °C | 0.83 °C | – |
| O=C1c2ccccc2C(=O)c2oc(-c3ccccc3)nc21 | 1.63 °C | -1.3 °C | – |
| Cc1ccsc1C(=CCCN1CCC[C@@H](C(=O)O)C1)c1sccc1C | 0.44 °C | 0.37 °C | – |
| CC(=O)N[C@@H](CC(=O)O)C(=O)N[C@@H](CC(N)=O)C(=O)N[C@@H](CC(C)C)C(=O)N[C@H](C=O)CC(=O)O | 1.79 °C | 0.44 °C | – |
| Cc1cc(C(=O)CN2CCCCC2)c(C)n1-c1ccc(Cl)cc1 | -1.17 °C | -0.09 °C | – |
| CCn1c(=O)c(C)cn(Cc2nnc(-c3ccc(F)c(OC)c3F)s2)c1=O | -0.72 °C | 0.75 °C | – |
| COCc1nc2cnc3cc(-c4c(C)noc4C)c(OC[C@H]4CCNC4)cc3c2n1[C@H](C)c1ccccc1 | 0.65 °C | 0.01 °C | – |
| O=C(c1cc(Cl)c(O)c(Cl)c1)N1CS(=O)(=O)c2ccccc21 | 1.35 °C | 0.39 °C | – |
| Cc1cc(C)nc(SCC(=O)Nc2ncc(Cc3cccc(OCc4cn(Cc5ccccc5)nn4)c3)s2)n1 | -1.46 °C | -10.7 °C | – |
| Fc1ccc(C(OCCN2CCN(CCCc3ccccc3)CC2)c2ccc(F)cc2)cc1 | 0.78 °C | -0.47 °C | – |
| CC(=O)N1CCC(c2ccc(C(=O)NC(=N)N)cc2C(F)(F)F)CC1 | 1.3 °C | 0.33 °C | – |
| CCO/N=C1\c2ccccc2-c2nc(C#N)c(C#N)nc21 | 2.55 °C and 0.36 °C | 0.21 °C and 0.32 °C | – |
| CC(=O)N[C@@H](Cc1ccccc1)C(=O)N[C@@H](CC(C)C)C(=O)N[C@H](C(=O)N[C@@H](CC(=O)O)C(=O)CCl)[C@@H](C)O (Ac-FLTD-CH2Cl) | -1.18 °C | 0.77 °C | – |
| NC(=O)[C@H]1CCCCc2c1[nH]c1ccc(Cl)cc21 | 0.13 °C | 1.09 °C | – |
| Cc1cccc(N/N=C(\C(=O)c2cccs2)C(=O)C(F)(F)F)c1 | 1.4 °C | -0.22 °C | – |
| CC1(NC(=O)COc2cccc(-c3nc4c(c(Nc5ccc(-c6cn[nH]c6)cc5)n3)CN(C3CCC3)CC4)c2)CC1 | 1.53 °C | -0.36 °C | – |
| CN(Cc1cccc(-c2ccncc2)c1)C(=O)Oc1ccc(-c2ccc(C(N)=O)cc2)cc1 | 2.09 °C | 0.69 °C | – |
| N[C@@H](CC(=O)N1CCN(C(c2ccc(F)cc2)c2ccc(F)cc2)CC1)C(=O)N1Cc2ccccc2C1 | -1.34 °C | 0 °C | – |

| Structure (SMILES) | ΔTm (Peregrin (Homo sapiens)) | ΔTm [1] | ΔTm (Peregrin (Homo sapiens); Protein concentration 2.0 uM) |
| --- | --- | --- | --- |
| COc1c(CN)cc(CN)cc1OCCCN1Cc2ccccc2C1 | 0.41 °C | 0.36 °C | – |
| CCOCC1(COCC)CCC(c2n[nH]cc2CN(C)CCNC)CC1 | -0.75 °C | -0.35 °C | – |
| CCN(C(=O)c1cc(F)ccc1Oc1cncnc1N1CC2(CCN(C[C@H]3CC[C@H](NS(=O)(=O)CC)CC3)CC2)C1)C(C)C | 0.45 °C | 0.21 °C | – |
| C[C@H](NC(=O)CCc1nc2ccccc2c(=O)[nH]1)c1ccccc1 | -0.15 °C | 0.69 °C | – |
| Cc1[nH]nc(C(F)(F)F)c1Cc1sc2c(c1C(=O)N1C[C@](C)(O)CO1)c(=O)n(C)c(=O)n2C(C)C | 0.94 °C | 1.06 °C | – |
| C=CCn1c(N[C@@H]2C[C@H](c3ccc(OCc4ccccc4)cc3)CN(C)C2)nc2cc[nH]c2c1=O | 3.96 °C | 0.37 °C | – |
| CC(=O)N[C@@H](CC(=O)O)C(=O)N[C@@H](CCC(=O)O)C(=O)N[C@H](C(=O)N[C@H](C=O)CC(=O)O)C(C)C | -1.4 °C | -0.22 °C | – |
| Cn1ncc(-c2nn(C)c3ncnc(N4CCC4)c23)c1-c1ccc(C(F)(F)F)cc1 | 3.7 °C | 0.04 °C | – |
| CN1CC[C@@H](Oc2ccc(F)c(-c3nc4c(o3)C(=O)c3ccccc3C4=O)c2Cl)C1 | 0.26 °C | -0.38 °C | – |
| CC(C)N(C[C@H]1O[C@@H](n2cnc3c(N)ncnc32)[C@H](O)[C@@H]1O)[C@H]1C[C@@H](CCc2nc3cc(C(C)(C)C)ccc3[nH]2)C1 | -1.35 °C | 0.82 °C | – |
| C(=C\c1ccccc1)/CN1CCN(CCOC(c2ccccc2)c2ccccc2)CC1 | 0.95 °C | -0.04 °C | – |
| C[C@H]1CO[C@@H]2Cn3cc(C(=O)NCc4ccc(F)cc4F)c(=O)c(O)c3C(=O)N12 | 2.22 °C | 0.45 °C | – |
| C[C@H](N)C(=O)N1C[C@H](CCCB(O)O)[C@](N)(C(=O)O)C1 | -0.07 °C | 0.25 °C | – |
| Nc1ccccc1NC(=O)c1ccc(CNc2nccc(-c3cccnc3)n2)cc1 | -0.72 °C | 1.02 °C | – |
| Nc1cccc(CNC(=O)c2ccc(Oc3ccc(OCc4cccc(F)c4)cc3)nc2)c1 | 2.81 °C | -0.6 °C | – |
| O=C(COc1ccc(-c2oc3cc(O)c(C(=O)O)cc3c2C#Cc2cccc(Cl)c2)cc1)NC1CC1 | -1.44 °C | 0.52 °C | – |
| COc1ccc(C(=O)C2CCN(CC(=O)N(Cc3nc4c(c(=O)[nH]3)COCC4)CC3CC3)CC2)cc1 | 2.73 °C | -0.62 °C | – |
| CC(=Cc1cc(C)ccc1C=C(C)C(=O)NC(=N)N)C(=O)N=C(N)N | -1.11 °C | -0.04 °C | – |
| COc1nc(Nc2cc(S(C)(=O)=O)ccc2N[C@@H](c2cccc3c2OC(F)(F)O3)c2ncccc2Cl)nc(N2CCNCC2)n1 | 0 °C | -8.88 °C | – |
| O=C(NCc1ncccc1F)c1coc(CCNCCc2nc3ccccc3[nH]2)n1 | -1.77 °C | -0.6 °C | – |

| Structure (SMILES) | ΔTm (Peregrin (Homo sapiens)) | ΔTm [1] | ΔTm (Peregrin (Homo sapiens); Protein concentration 2.0 uM) |
| --- | --- | --- | --- |
| CCOc1ccc2nc(-c3cccc(OCC(=O)NC(C)C)c3)nc(Nc3ccc(-c4cn[nH]c4)cc3)c2c1 | 2.82 °C | -0.59 °C | – |
| CCCOc1cc(OCCCCN(C)C)cc(Oc2cc3c(cc2NS(=O)(=O)c2ccc(OC)c(OC)c2)n(C)c(=O)n3C)c1 | 9.12 °C | 0.62 °C | – |
| CCn1nc(C2CC2)cc1Nc1nc(C(=O)NC)nc2[nH]c3cc(-c4c(C)noc4C)c(OC)cc3c12 | 0.68 °C | -0.1 °C | – |
| Cc1cc(Cl)cc(-c2c3sc(CN4C(=O)C5C(C4=O)C5(C)C)cc3nn2C)c1OC1CCNCC1 (stereo not given) | 0.52 °C | -0.72 °C | – |
| Cn1c(NCCN(CCO)CCCc2ccc([N+](=O)[O-])cc2)cc(=O)n(C)c1=O | 1.28 °C | 0.47 °C | – |
| CC(C)(C)c1ccc(CN(C(=O)CN(Cc2c(F)c(F)c(F)c(F)c2F)S(=O)(=O)c2ccc(F)cc2)c2ccc(C(=O)NO)cc2)cc1 | -3.76 °C | 1.58 °C | – |
| C=CC(=O)Nc1cccc(-c2c[nH]cc2CN(C)CCN)c1 | -1.04 °C | 0.24 °C | – |
| Cn1c(=O)c2c(nc(N3CCNCC3)n2Cc2nnc(-c3ccc(Cl)c(Cl)c3)o2)n(C)c1=O | -0.83 °C | 0.08 °C | – |
| C[C@H](NC(=O)c1cn(C2(C#N)CC2)cn1)C(=O)Nc1nc(-c2cccc(-c3ccn(C)n3)c2)cs1 | -0.85 °C | 0.8 °C | – |
| O=S(=O)(O)c1ccc2cc(/N=N/c3cc(S(=O)(=O)O)c4cccnc4c3O)ccc2c1 | -0.89 °C | -0.08 °C | – |
| CC1C(C#N)=C(N)OC2=C1C(=O)CC(c1cccc3ccccc13)C2 (stereo not given) | 1.86 °C | -1.52 °C | – |
| CC(C)N(C(=O)c1cc(F)ccc1Oc1cncnc1N1CC2(CCN(C[C@H]3CC[C@H](NS(C)(=O)=O)CC3)CC2)C1)C(C)C | 0.63 °C | -0.47 °C | – |
| CCCC(NC(=O)C(CC(C)C)NC(=O)OCc1ccccc1)C(=O)C(=O)NCc1ccccn1 (racemic) | -1.7 °C | 0.15 °C | – |
| Cc1sc2c(c1C)C(c1ccc(Cl)cc1)=N[C@@H](CC(=O)OC(C)(C)C)c1nnc(C)n1-2 | -1.61 °C | 0.6 °C | – |
| OC[C@H]1O[C@@H](c2ccc(Cl)c(Cc3ccc(O[C@H]4CCOC4)cc3)c2)[C@H](O)[C@@H](O)[C@@H]1O | 1.01 °C | -0.41 °C | – |
| COc1cc2c(NC3CCN(CC4CCCCC4)CC3)nc(N3CCCN(C(C)C)CC3)nc2cc1OCCCN1CCCCC1 | -0.98 °C | 0.65 °C | – |
| CN(C)CCCNC(=O)c1ccc(-c2cc(O)c3ncccc3c2)cc1 | -1.48 °C | 0.49 °C | – |
| C[C@@H]1O[C@@H](CC(=O)O)CC2=C1C(=O)c1c(O)cccc1C2=O | 0.11 °C | -0.89 °C | – |
| CCCCCCCCCCCCCCCCNNC(=O)c1cccs1 | -0.84 °C | 0.53 °C | – |
| CS(=O)(=O)c1ccc(-c2nnc(C=Cc3nnc(-c4ccc(C#N)cc4)o3)n2-c2ccccc2Cl)nc1 | – | 0.13 °C | 2 °C |
